# Measured values from PubChem BioAssay (NCI).
#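 Test compounds were applied to cells in 96-well plates for 48 hours at 5 doses. TGI denotes the concentration required for complete inhibition of growth.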
# Tests used:
# Test in all cases: NCI anticancer screen, dose series, 48 h
# HOP-62 NSCLC = tested on: HOP-62 NSCLC
# LXFL 529 NSCLC = tested on: LXFL 529 NSCLC
# CCRF-CEM leukemia = tested on: CCRF-CEM leukemia
# NCI-H522 lung = tested on: NCI-H522 lung
# IGROV1 ovarian = tested on: IGROV1 ovarian
# 786-0 renal = tested on: 786-0 renal
# XF 498 CNS = tested on: XF 498 CNS
# DMS 114 small cell lung = tested on: DMS 114 small cell lung
# UACC-62 melanoma = tested on: UACC-62 melanoma
# SNB-19 CNS = tested on: SNB-19 CNS
# RPMI-8226 leukemia = tested on: RPMI-8226 leukemia
# K-562 leukemia = tested on: K-562 leukemia
# HOP-18 NSCLC = tested on: HOP-18 NSCLC
# DMS 273 small cell lung = tested on: DMS 273 small cell lung
# SNB-78 CNS = tested on: SNB-78 CNS
# LOX IMVI melanoma = tested on: LOX IMVI melanoma
# SF-295 CNS = tested on: SF-295 CNS
# HCT-15 colon = tested on: HCT-15 colon
# CAKI-1 renal = tested on: CAKI-1 renal
# NCI-H460 lung = tested on: NCI-H460 lung
# ACHN renal = tested on: ACHN renal
# SW-620 colon = tested on: SW-620 colon
# HL-60(TB) leukemia = tested on: HL-60(TB) leukemia
# OVCAR-4 ovarian = tested on: OVCAR-4 ovarian
# SK-OV-3 ovarian = tested on: SK-OV-3 ovarian
# HCT-116 colon = tested on: HCT-116 colon
# MALME-3M melanoma = tested on: MALME-3M melanoma
# SN12C renal = tested on: SN12C renal
# UACC-257 melanoma = tested on: UACC-257 melanoma
# MOLT-4 leukemia = tested on: MOLT-4 leukemia
# KM20L2 colon = tested on: KM20L2 colon
# HCC-2998 colon = tested on: HCC-2998 colon
# SNB-75 CNS = tested on: SNB-75 CNS
# UO-31 renal = tested on: UO-31 renal
# A498 renal = tested on: A498 renal
# OVCAR-3 ovarian = tested on: OVCAR-3 ovarian
# SK-MEL-2 melanoma = tested on: SK-MEL-2 melanoma
# SF-268 CNS = tested on: SF-268 CNS
# U251 CNS = tested on: U251 CNS
# DLD-1 colon = tested on: DLD-1 colon
# SR leukemia = tested on: SR leukemia
# RXF 393 renal = tested on: RXF 393 renal
# KM12 colon = tested on: KM12 colon
# M14 melanoma = tested on: M14 melanoma
# SF-539 CNS = tested on: SF-539 CNS
# HT29 colon = tested on: HT29 colon
# SK-MEL-5 melanoma = tested on: SK-MEL-5 melanoma
# SK-MEL-28 melanoma = tested on: SK-MEL-28 melanoma
# TK-10 renal = tested on: TK-10 renal
# HOP-92 NSCLC = tested on: HOP-92 NSCLC
# COLO 205 colon = tested on: COLO 205 colon
# OVCAR-8 ovarian = tested on: OVCAR-8 ovarian
# NCI-H226 lung = tested on: NCI-H226 lung
# NCI-H23 lung = tested on: NCI-H23 lung
# OVCAR-5 ovarian = tested on: OVCAR-5 ovarian
# EKVX NSCLC = tested on: EKVX NSCLC
# A549 NSCLC = tested on: A549 NSCLC
# M19-MEL melanoma = tested on: M19-MEL melanoma
# RXF-631 renal = tested on: RXF-631 renal
smiles,measurement,setting,value
O=C(CC(=O)c1ccccc1)C(=O)Nc1ccc(Cl)cc1,TGI,HOP-62 NSCLC,> 100 µM
same,TGI,LXFL 529 NSCLC,> 100 µM
same,TGI,CCRF-CEM leukemia,> 100 µM
same,TGI,NCI-H522 lung,> 100 µM
same,TGI,IGROV1 ovarian,> 100 µM
same,TGI,786-0 renal,> 100 µM
same,TGI,XF 498 CNS,> 100 µM
same,TGI,DMS 114 small cell lung,> 57 µM
same,TGI,UACC-62 melanoma,> 100 µM
same,TGI,SNB-19 CNS,> 100 µM
same,TGI,RPMI-8226 leukemia,> 100 µM
same,TGI,K-562 leukemia,> 100 µM
same,TGI,HOP-18 NSCLC,> 100 µM
same,TGI,DMS 273 small cell lung,> 100 µM
same,TGI,SNB-78 CNS,> 100 µM
same,TGI,LOX IMVI melanoma,> 56.7 µM
same,TGI,SF-295 CNS,> 100 µM
same,TGI,HCT-15 colon,> 59.7 µM
same,TGI,CAKI-1 renal,> 100 µM
same,TGI,NCI-H460 lung,> 55.1 µM
same,TGI,ACHN renal,> 100 µM
same,TGI,SW-620 colon,> 60.2 µM
same,TGI,HL-60(TB) leukemia,> 100 µM
same,TGI,OVCAR-4 ovarian,> 100 µM
same,TGI,SK-OV-3 ovarian,> 100 µM
same,TGI,HCT-116 colon,> 61.5 µM
same,TGI,MALME-3M melanoma,> 100 µM
same,TGI,SN12C renal,> 100 µM
same,TGI,UACC-257 melanoma,> 100 µM
same,TGI,MOLT-4 leukemia,> 100 µM
same,TGI,KM20L2 colon,> 100 µM
same,TGI,HCC-2998 colon,> 100 µM
same,TGI,SNB-75 CNS,> 100 µM
same,TGI,UO-31 renal,> 100 µM
same,TGI,A498 renal,> 100 µM
same,TGI,OVCAR-3 ovarian,> 100 µM
same,TGI,SK-MEL-2 melanoma,> 100 µM
same,TGI,SF-268 CNS,> 100 µM
same,TGI,U251 CNS,> 100 µM
same,TGI,DLD-1 colon,> 100 µM
same,TGI,SR leukemia,> 100 µM
same,TGI,RXF 393 renal,> 100 µM
same,TGI,KM12 colon,> 100 µM
same,TGI,M14 melanoma,> 100 µM
same,TGI,SF-539 CNS,> 100 µM
same,TGI,HT29 colon,> 59.6 µM
same,TGI,SK-MEL-5 melanoma,> 100 µM
same,TGI,SK-MEL-28 melanoma,> 100 µM
same,TGI,TK-10 renal,> 100 µM
same,TGI,HOP-92 NSCLC,> 100 µM
same,TGI,COLO 205 colon,> 66.1 µM
same,TGI,OVCAR-8 ovarian,> 100 µM
same,TGI,NCI-H226 lung,> 100 µM
same,TGI,NCI-H23 lung,> 100 µM
same,TGI,OVCAR-5 ovarian,> 100 µM
same,TGI,EKVX NSCLC,> 100 µM
same,TGI,A549 NSCLC,> 100 µM
Cc1ccc(C2=Nc3ccccc3SC(c3cccc4c3OCO4)C2)cc1 (centres undefined),TGI,HOP-62 NSCLC,> 100 µM
same,TGI,LXFL 529 NSCLC,28.9 µM
same,TGI,CCRF-CEM leukemia,37.9 µM
same,TGI,NCI-H522 lung,31 µM
same,TGI,IGROV1 ovarian,42.4 µM
same,TGI,786-0 renal,39.9 µM
same,TGI,XF 498 CNS,29 µM
same,TGI,UACC-62 melanoma,41.9 µM
same,TGI,SNB-19 CNS,30.7 µM
same,TGI,RPMI-8226 leukemia,54.2 µM
same,TGI,K-562 leukemia,38.3 µM
same,TGI,HOP-18 NSCLC,38.4 µM
same,TGI,DMS 273 small cell lung,40.2 µM
same,TGI,LOX IMVI melanoma,31.1 µM
same,TGI,SF-295 CNS,45.6 µM
same,TGI,HCT-15 colon,54.1 µM
same,TGI,CAKI-1 renal,30 µM
same,TGI,NCI-H460 lung,> 100 µM
same,TGI,ACHN renal,53.8 µM
same,TGI,SW-620 colon,39.8 µM
same,TGI,HL-60(TB) leukemia,39 µM
same,TGI,OVCAR-4 ovarian,33.7 µM
same,TGI,SK-OV-3 ovarian,76.3 µM
same,TGI,MALME-3M melanoma,56 µM
same,TGI,SN12C renal,41 µM
same,TGI,UACC-257 melanoma,38.4 µM
same,TGI,MOLT-4 leukemia,55.7 µM
same,TGI,KM20L2 colon,41.2 µM
same,TGI,HCC-2998 colon,41.3 µM
same,TGI,SNB-75 CNS,28.8 µM
same,TGI,UO-31 renal,27.3 µM
same,TGI,A498 renal,43.6 µM
same,TGI,OVCAR-3 ovarian,28.5 µM
same,TGI,SK-MEL-2 melanoma,44 µM
same,TGI,SF-268 CNS,45.6 µM
same,TGI,DLD-1 colon,90.3 µM
same,TGI,KM12 colon,32.5 µM
same,TGI,M14 melanoma,34.9 µM
same,TGI,SF-539 CNS,40.2 µM
same,TGI,HT29 colon,33.2 µM
same,TGI,SK-MEL-5 melanoma,31.1 µM
same,TGI,SK-MEL-28 melanoma,32.9 µM
same,TGI,TK-10 renal,40.3 µM
same,TGI,COLO 205 colon,35.6 µM
same,TGI,OVCAR-8 ovarian,65.3 µM
same,TGI,NCI-H226 lung,37 µM
same,TGI,NCI-H23 lung,39.8 µM
same,TGI,OVCAR-5 ovarian,51.5 µM
same,TGI,EKVX NSCLC,38.7 µM
same,TGI,M19-MEL melanoma,36.3 µM
same,TGI,A549 NSCLC,72.4 µM
C[C@H]1C(=O)c2c(cc(O)c(C3OC(CO)C(O)C(O)C3O)c2O)OC1c1ccc(O)c(O)c1 (some centres undefined),TGI,HOP-62 NSCLC,> 100 µM
same,TGI,CCRF-CEM leukemia,> 100 µM
same,TGI,NCI-H522 lung,> 100 µM
same,TGI,IGROV1 ovarian,> 100 µM
same,TGI,DMS 114 small cell lung,> 100 µM
same,TGI,UACC-62 melanoma,> 100 µM
same,TGI,SNB-19 CNS,> 100 µM
same,TGI,SNB-78 CNS,> 100 µM
same,TGI,SF-295 CNS,> 100 µM
same,TGI,NCI-H460 lung,> 100 µM
same,TGI,ACHN renal,> 100 µM
same,TGI,HL-60(TB) leukemia,> 100 µM
same,TGI,SK-OV-3 ovarian,> 100 µM
same,TGI,HCT-116 colon,> 100 µM
same,TGI,UACC-257 melanoma,> 100 µM
same,TGI,MOLT-4 leukemia,> 100 µM
same,TGI,UO-31 renal,> 100 µM
same,TGI,A498 renal,> 100 µM
same,TGI,U251 CNS,> 100 µM
same,TGI,RXF-631 renal,> 100 µM
same,TGI,SR leukemia,> 100 µM
same,TGI,RXF 393 renal,> 100 µM
same,TGI,KM12 colon,> 100 µM
same,TGI,M14 melanoma,> 100 µM
same,TGI,HT29 colon,> 100 µM
same,TGI,SK-MEL-28 melanoma,> 100 µM
same,TGI,TK-10 renal,> 100 µM
same,TGI,HOP-92 NSCLC,> 100 µM
same,TGI,OVCAR-8 ovarian,> 100 µM
same,TGI,NCI-H226 lung,98.9 µM
same,TGI,NCI-H23 lung,> 100 µM
same,TGI,OVCAR-5 ovarian,> 100 µM
same,TGI,EKVX NSCLC,> 100 µM
same,TGI,M19-MEL melanoma,> 100 µM
same,TGI,A549 NSCLC,> 100 µM
CC(C)OC(=O)C1Cc2c([nH]c3ccccc23)C(c2ccccc2)N1 (centres undefined),TGI,HOP-62 NSCLC,69.9 µM
same,TGI,LXFL 529 NSCLC,> 100 µM
same,TGI,CCRF-CEM leukemia,> 100 µM
same,TGI,NCI-H522 lung,> 100 µM
same,TGI,IGROV1 ovarian,> 100 µM
same,TGI,786-0 renal,> 100 µM
same,TGI,XF 498 CNS,> 100 µM
same,TGI,DMS 114 small cell lung,> 100 µM
same,TGI,UACC-62 melanoma,> 100 µM
same,TGI,SNB-19 CNS,> 100 µM
same,TGI,RPMI-8226 leukemia,> 100 µM
same,TGI,K-562 leukemia,> 100 µM
same,TGI,DMS 273 small cell lung,> 100 µM
same,TGI,SNB-78 CNS,> 100 µM
same,TGI,LOX IMVI melanoma,> 100 µM
same,TGI,SF-295 CNS,> 100 µM
same,TGI,HCT-15 colon,> 100 µM
same,TGI,CAKI-1 renal,> 100 µM
same,TGI,NCI-H460 lung,> 100 µM
same,TGI,ACHN renal,> 100 µM
same,TGI,SW-620 colon,> 100 µM
same,TGI,HL-60(TB) leukemia,> 100 µM
same,TGI,OVCAR-4 ovarian,> 100 µM
same,TGI,SK-OV-3 ovarian,> 100 µM
same,TGI,HCT-116 colon,> 100 µM
same,TGI,MALME-3M melanoma,73.4 µM
same,TGI,SN12C renal,> 100 µM
same,TGI,UACC-257 melanoma,> 100 µM
same,TGI,MOLT-4 leukemia,> 100 µM
same,TGI,KM20L2 colon,> 100 µM
same,TGI,HCC-2998 colon,> 100 µM
same,TGI,SNB-75 CNS,86.5 µM
same,TGI,UO-31 renal,73.9 µM
same,TGI,A498 renal,> 100 µM
same,TGI,OVCAR-3 ovarian,> 100 µM
same,TGI,SK-MEL-2 melanoma,41.2 µM
same,TGI,SF-268 CNS,> 100 µM
same,TGI,U251 CNS,> 100 µM
same,TGI,DLD-1 colon,> 100 µM
same,TGI,RXF 393 renal,98.3 µM
same,TGI,KM12 colon,> 100 µM
same,TGI,M14 melanoma,> 100 µM
same,TGI,SF-539 CNS,> 100 µM
same,TGI,HT29 colon,> 100 µM
same,TGI,SK-MEL-5 melanoma,> 100 µM
same,TGI,SK-MEL-28 melanoma,> 100 µM
same,TGI,TK-10 renal,> 100 µM
same,TGI,HOP-92 NSCLC,> 100 µM
same,TGI,COLO 205 colon,> 100 µM
same,TGI,OVCAR-8 ovarian,> 100 µM
same,TGI,NCI-H226 lung,> 100 µM
same,TGI,NCI-H23 lung,> 100 µM
same,TGI,OVCAR-5 ovarian,> 100 µM
same,TGI,EKVX NSCLC,> 100 µM
same,TGI,M19-MEL melanoma,> 100 µM
same,TGI,A549 NSCLC,> 100 µM
